Where “and” joins values, the source holds several entries; their conditions need not be identical. Equal entries are not always repeated.
How the values were obtained:
Granulocytes = assay: FACScan (Cytometer C) flow cytometric analysis of DRAQ5-labelled cells; assay type: cell-based, human; conditions: 20 μM DRAQ5, 5 min
Protocol: (§1) Suspension cultures were analysed by flow cytometry without washing. Human blood was obtained using routine venepuncture of a healthy donor and samples manipulated using standard haematological procedures for the isolation of mononuclear blood cells and surface antigen recognition using antibody panels (see Table 1).
(§2) Cells were analysed using one of four flow cytometers according to the excitation requirements. • Cytometer A: Single beam high power 647 nm krypton laser excitation: The system was a custom-built cytometer and incorporated an Innova 3000K krypton laser (Coherent Corp., Palo Alto, Calif., USA) tuned to the 647 nm line. Forward light scatter, 90° light scatter and fluorescence emissions were collected for 1×10^4 cells using the 90° light scatter parameter as the master signal. The optical system permitted the analysis of various fluorescence emission wavelengths including: >715 nm (termed low infra-red) and, as reported here >780 nm fluorescence (infra-red ). Forward and 90° light scatter were analysed for the identification of cell debris. Laser power was set at 200 mW and linear amplifiers were used for the fluorescence signals. The analysis optics included a 675 nm cold dichroic mirror, ambient laboratory temperature was approximately 12° C. and the sheath reservoir was maintained at 10° C. Filters were supplied by Melles Griot. Median, mean and mode parameters were calculated for the distribution of fluorescence intensity-values throughout a given cell population. In all experiments, median and mean values produced very similar results. Median values alone are reported since this parameter is less affected by the presence of highly fluorescent cells beyond the upper limit for quantification. • Cytometer B: Dual beam low power 633 nm/high power 488 nm laser excitation: The system was a FACS 440 cell sorter (Becton Dickinson Inc., Cowley, UK) incorporating a Spectra Physics argon ion laser (max 500 mW output), tuned to the 488 nm line (100 mW output), and a secondary Spectra Physics 156 helium-neon laser emitting at 633 nm (emitting <5 mW), with a temporal beam separation of about 30 μsec. Forward light scatter, 90° light scatter and fluorescence emissions were collected for 1×10^4 cells using the forward light scatter parameter as the master signal from the primary 488 nm beam, while side scatter was collected through a 488/10 nm band-pass filter. The analysis optics included: i) a cold dichroic mirror (transmitting >675 nm), ii) fluorescence from fluorescein excited by the 488 nm beam detected at a PMT guarded by a 535/15 nm band-pass filter with no signal delay, and iii) a red-sensitive PMT with an appropriate delay, additionally guarded by a 620 nm long-pass filter, to detect the transmitted beam of DRAQ5-associated fluorescence at wavelengths beyond 675 nm (high-red and extending into the infra red region of the spectrum) Forward and 90° light scatter were analysed to exclude any cell debris. All parameters were acquired at 256 channel resolution with Consort 30 software (Becton Dickinson) and subsequently analysed with WinMDI software (J. Trotter, La Jolla, Calif.). The system employed the same analysis optics when used in the single 488 nm beam mode but with no signal delay for the red-sensitive PMT. • Cytometer C: Single beam, low power 488 nm laser excitation: The system was a FACScan (Becton Dickinson; Inc., Cowley, UK) incorporating an argon ion laser (max 15 mW output), tuned to the 488 nm line. Forward light scatter, 90° light scatter and fluorescence emissions were collected for 1×10^4 cells using the forward light scatter parameter as the master signal. The standard analysis optics provided the FL1 (blue)/FL2 (green)/FL3 (red) PMT parameters with pulse analysis performed on the FL3 originating signals. • Cytometer D: Triple beam medium power 633 nm/medium power 488 nm/medium power multiline-UV laser excitation: […]

SUD4 cells = assay: as above; assay type: cell-based, human
Protocol: HL60 (human promyelocytic-leukaemia cell line) and SUD4 (human B cell lymphoma cell line) were grown as suspension cultures-in-RMPI medium with 10% foetal calf serum, 1 mM glutamine and antibiotics and incubated at 37° C. in an atmosphere of 5% CO2 in air. For flow cytometry experiments, asynchronously growing suspension cultures were diluted to 2.5-4>10^5 cells/ml at 2 h prior to drug treatment. Cell cycle-perturbed populations were obtained by treating SUD4 cells with the drug etoposide (VP-16-213) at 0.25 μM for 18h. Cells were treated with DRAQ5 and FDA as described above. Cell concentrations were determined using a Coulter counter and cell cycle distribution determined using an algorithm for the normal distibution of fluorescence intensity profiles for fluorochrome stained G1 and G2 cells.
as §1
as §2, with “Calif.).” for “Calif.). The system employed the same analysis optics when used in the single 488 nm beam mode but with no signal delay for the red-sensitive PMT. • Cytometer C: Single beam, low power 488 nm laser excitation: The system was a FACScan (Becton Dickinson; Inc., Cowley, UK) incorporating an argon ion laser (max 15 mW output), tuned to the 488 nm line. Forward light scatter, 90° light scatter and fluorescence emissions were collected for 1×10^4 cells using the forward light scatter parameter as the master signal. The standard analysis optics provided the FL1 (blue)/FL2 (green)/FL3 (red) PMT parameters with pulse analysis performed on the FL3 originating signals. • Cytometer D: Triple beam medium power 633 nm/medium power 488 nm/medium power multiline-UV laser excitation:”

## CN(C)CCNc1ccc(O)c2c1C(=O)c1c(O)ccc(NCCN(C)C)c1C2=O [DRAQ5]
Granulocytes; Preparation 5 whole blood, viable cells
  Mean fluorescence intensity (±sd) of gated population: 248.4 ± 35.9
Granulocytes; Preparation 6 whole blood, cells lysed and fixed
  Mean fluorescence intensity (±sd) of gated population: 254.3 ± 31.1
SUD4 cells; 5 min at room temperature, SUD4, lymphocytes, monocytes (FIG. 8)
  DRAQ5 concentration at which staining saturates: ≥ 10 µM
SUD4 cells; Preparation 1, VP-16 arrested versus asynchronous cells
  increase of mean fluorescence for G2 arrested populations: 1.7 fold
SUD4 cells; Preparation 1, 20 μM DRAQ5, 120 min, FL3
  Mean fluorescence intensity (±sd) of gated population: 645.1 ± 177.7
SUD4 cells; Preparation 1, cells pretreated 0.25 μM VP-16 × 18 h, 20 μM DRAQ5, 5 min
  Mean fluorescence intensity (±sd) of gated population: 891.8 ± 126.4
SUD4 cells; Preparation 1 viable cultured cells, 20 μM DRAQ5, 5 min, FL3
  Mean fluorescence intensity (±sd) of gated population: 499.4 ± 143.3 and 532.4 ± 148.3
SUD4 cells; Preparation 2, cells pretreated 0.25 μM VP-16, 20 μM DRAQ5, 5 min
  Mean fluorescence intensity (±sd) of gated population: 902.7 ± 117.1
SUD4 cells; Preparation 2 surface antigen analysis, 20 μM DRAQ5, 5 min
  Mean fluorescence intensity (±sd) of gated population: 564.3 ± 147.2

— patent US7605280B2, “Anthraquinone and its derivatives” (Biostatus Limited, priority 1998, dated 2009)
